# Source: ChEMBL document CHEMBL1671744 (Antimicrob Agents Chemother, 2010)
# Where a SMILES comes first, the peptide text is derived from it. [ ]: non-standard residue; d: D form. The star is where a group is joined. Leu(5,5,5,5',5',5'-F6) = N[C@@H](CC(C(F)(F)F)C(F)(F)F)C(=O)O; Undecanoyl = CCCCCCCCCCC(=O)*
# Experiments:
# Bacillus subtilis = assay: Antimicrobial activity against Bacillus subtilis; assay type: functional
# Escherichia coli = assay: Antimicrobial activity against Escherichia coli; assay type: functional
# Aspergillus fumigatus = assay: Antimicrobial activity against Aspergillus fumigatus; assay type: functional
# Staphylococcus aureus = assay: Antimicrobial activity against Staphylococcus aureus; assay type: functional
# Pseudomonas aeruginosa = assay: microbe, parasite or virus in culture; assay type: functional
# [1] = erythrocyte
# [2] = Toxicity in RBC assessed as hemolysis at 25 uM; assay type: cell-based; settings: erythrocyte
smiles,measurement,setting,value
"CC(C)[C@H](NC(=O)[C@H](CCCNC(=N)N)NC(=O)CNC(=O)[C@@H](NC(=O)[C@@H]1CCCN1C(=O)[C@@H](N)Cc1ccccc1)C(C)C)C(=O)N[C@@H](Cc1cnc[nH]1)C(=O)N[C@@H](CCCNC(=N)N)C(=O)N[C@@H](CC(C(F)(F)F)C(F)(F)F)C(=O)N[C@@H](CC(C(F)(F)F)C(F)(F)F)C(=O)N[C@@H](CCCNC(=N)N)C(=O)N[C@@H](CCCCN)C(=O)O (H-FPVGRVHR[Leu(5,5,5,5',5',5'-F6)][Leu(5,5,5,5',5',5'-F6)]RK-OH)",MIC,Bacillus subtilis,5.9 µM
same,MIC,Escherichia coli,23 µM
same,HC50,in vitro; red blood cells,> 235 µM
CC(C)C[C@H](NC(=O)[C@H](CC(C)C)NC(=O)[C@H](CCCNC(=N)N)NC(=O)[C@H](Cc1cnc[nH]1)NC(=O)[C@@H](NC(=O)[C@H](CCCNC(=N)N)NC(=O)CNC(=O)[C@@H](NC(=O)[C@@H]1CCCN1C(=O)[C@@H](N)Cc1ccccc1)C(C)C)C(C)C)C(=O)N[C@@H](CCCNC(=N)N)C(=O)N[C@@H](CCCCN)C(=O)O (H-FPVGRVHRLLRK-OH),MIC,Bacillus subtilis,> 173 µM
same,MIC,Escherichia coli,> 173 µM
same,HC50,in vitro; red blood cells,> 270 µM
CCCCCCCCCCCCCCCC(=O)N[C@@H](CCCCN)C(=O)N[C@@H](CCCCN)C(=O)N[C@@H](CCCCN)C(N)=O,MIC,Aspergillus fumigatus,3.1 µM
same,MIC,Escherichia coli,1.56 µM
same,HC50,in vitro; red blood cells,100 µM
N=C(N)NCCC[C@H](NC(=O)[C@H](Cc1c[nH]c2ccccc12)NC(=O)[C@H](CCCNC(=N)N)NC(=O)[C@H](Cc1c[nH]c2ccccc12)NC(=O)[C@H](CCCNC(=N)N)NC(=O)[C@H](Cc1c[nH]c2ccccc12)NC(=O)[C@H](CCCNC(=N)N)NC(=O)[C@H](Cc1c[nH]c2ccccc12)NC(=O)[C@@H](N)CCCNC(=N)N)C(=O)N[C@@H](Cc1c[nH]c2ccccc12)C(N)=O,MIC,Staphylococcus aureus,3.6 µM
same,MIC,Escherichia coli,6.2 µM
same,HC50,in vitro; erythrocyte,76 µM
CC[C@@H](C)[C@@H](NC(=O)[C@@H](C)NC(=O)[C@@H](CCCCN)NC(=O)[C@@H](CC(C)C)NC(=O)[C@@H](C)NC(=O)[C@H](NC(=O)[C@@H](Cc1cnc[nH]1)NC(=O)[C@@H](CC(C)C)NC(=O)[C@H](NC(=O)[C@H](NC(=O)[C@@H](CCCCN)NC(=O)[C@@H](CCCCN)NC(=O)[C@@H](C)NC(=O)[C@@H](CO)NC(=O)[C@@H](CCCCN)NC(=O)[C@@H](Cc1ccccc1)NC(=O)[C@H](NC(=O)[C@@H](CCCCN)NC(=O)[C@@H](CC(C)C)NC(=O)[C@@H](Cc1ccccc1)NC(=O)[C@@H](CO)NC(=O)[C@@H](CCCCN)NC(=O)[C@@H](Cc1c[nH]c2ccccc12)NC(=O)[C@@H](CCCCN)NC(C)=O)[C@H](C)O)[C@H](C)O)C(C)C)[C@H](C)O)C(=O)N[C@H](CO)C(=O)N[C@H](CO)C(N)=O,MIC,Escherichia coli,1.1 µM
same,MIC,Pseudomonas aeruginosa,5.3 µM
CC[C@H](C)[C@H](NC(=O)[C@H](CC(C)C)NC(=O)[C@H](CCCCN)NC(=O)[C@H](CC(C)C)NC(=O)[C@H](CC(C)C)NC(=O)[C@@H](NC(=O)[C@H](Cc1cnc[nH]1)NC(=O)[C@H](CC(C)C)NC(=O)[C@@H](NC(=O)[C@@H](NC(=O)[C@H](CCCCN)NC(=O)[C@H](CCCCN)NC(=O)[C@H](CC(C)C)NC(=O)[C@H](CO)NC(=O)[C@H](CCCCN)NC(=O)[C@H](Cc1ccccc1)NC(=O)[C@@H](NC(=O)[C@H](CCCCN)NC(=O)[C@H](CC(C)C)NC(=O)[C@H](Cc1ccccc1)NC(=O)[C@H](CO)NC(=O)[C@H](Cc1c[nH]c2ccccc12)NC(=O)[C@H](CCCCN)NC(C)=O)[C@@H](C)O)[C@@H](C)O)C(C)C)[C@@H](C)O)C(=O)N[C@@H](CO)C(=O)N[C@@H](CO)C(N)=O,MIC,Pseudomonas aeruginosa,168 µM
same,MHC,[1],1.3 µM
CC[C@H](C)[C@H](NC(=O)CN)C(=O)NCC(=O)N[C@@H](CCCCN)C(=O)N[C@@H](Cc1ccccc1)C(=O)N[C@@H](CC(C)C)C(=O)N[C@@H](Cc1cnc[nH]1)C(=O)N[C@@H](CO)C(=O)N[C@@H](C)C(=O)N[C@@H](CCCCN)C(=O)N[C@@H](CCCCN)C(=O)N[C@@H](Cc1c[nH]c2ccccc12)C(=O)NCC(=O)N[C@@H](CCCCN)C(=O)N[C@@H](C)C(=O)N[C@@H](Cc1ccccc1)C(=O)N[C@H](C(=O)NCC(=O)N[C@@H](CCC(=O)O)C(=O)N[C@H](C(=O)N[C@@H](CCSC)C(=O)N[C@@H](CC(N)=O)C(=O)N[C@@H](CO)C(N)=O)[C@@H](C)CC)C(C)C (H-GIGKFLHSAKKWGKAFVGEIMNS-NH2),MIC,Aspergillus fumigatus,> 50 µM
"CC[C@H](C)[C@H](NC(=O)CN)C(=O)NCC(=O)N[C@@H](CCCCN)C(=O)N[C@@H](Cc1ccccc1)C(=O)N[C@@H](CC(C(F)(F)F)C(F)(F)F)C(=O)N[C@@H](Cc1cnc[nH]1)C(=O)N[C@@H](C)C(=O)N[C@@H](C)C(=O)N[C@@H](CCCCN)C(=O)N[C@@H](CCCCN)C(=O)N[C@@H](Cc1ccccc1)C(=O)N[C@@H](C)C(=O)N[C@@H](CCCCN)C(=O)N[C@@H](C)C(=O)N[C@@H](Cc1ccccc1)C(=O)N[C@H](C(=O)N[C@@H](C)C(=O)N[C@@H](CCC(=O)O)C(=O)N[C@@H](CC(C(F)(F)F)C(F)(F)F)C(=O)N[C@@H](CCSC)C(=O)N[C@@H](CC(N)=O)C(=O)N[C@@H](CO)C(N)=O)C(C)C (H-GIGKF[Leu(5,5,5,5',5',5'-F6)]HAAKKFAKAFVAE[Leu(5,5,5,5',5',5'-F6)]MNS-NH2)",MIC,Bacillus subtilis,0.92 µM
same,MIC,Escherichia coli,0.92 µM
same,HC50,in vitro; red blood cells,7.4 µM
CC[C@H](C)[C@H](NC(=O)[C@H](C)NC(=O)[C@H](CCCCN)NC(=O)[C@H](C)NC(=O)[C@H](C)NC(=O)[C@@H](NC(=O)[C@H](Cc1cnc[nH]1)NC(=O)[C@H](CC(C)C)NC(=O)[C@@H](NC(=O)[C@@H](NC(=O)[C@H](CCCCN)NC(=O)[C@H](CCCCN)NC(=O)[C@H](C)NC(=O)[C@H](CO)NC(=O)[C@H](CCCCN)NC(=O)[C@H](Cc1ccccc1)NC(=O)[C@@H](NC(=O)[C@H](CCCCN)NC(=O)[C@H](C)NC(=O)[C@H](Cc1ccccc1)NC(=O)[C@H](CO)NC(=O)[C@H](CCCCN)NC(=O)[C@H](Cc1c[nH]c2ccccc12)NC(=O)[C@H](CCCCN)NC(C)=O)[C@@H](C)O)[C@@H](C)O)C(C)C)[C@@H](C)O)C(=O)N[C@@H](CO)C(=O)N[C@@H](CO)C(N)=O (Ac-KWKSFAKTFKSAKKTVLHTAAKAISS-NH2),MIC,Pseudomonas aeruginosa,168 µM
same,MHC,[1],336 µM
CSCC[C@H](NC(=O)[C@@H](NC(=O)[C@H](CCCNC(=N)N)NC(=O)[C@H](Cc1ccccc1)NC(=O)[C@H](C)NC(=O)[C@H](C)NC(=O)[C@H](CCCCN)NC(=O)[C@H](CCCNC(=N)N)NC(=O)[C@H](Cc1ccccc1)NC(=O)[C@H](C)NC(=O)[C@@H]1CCCN1C(=O)[C@@H](N)CCCNC(=N)N)C(C)C)C(=O)N[C@@H](CCCNC(=N)N)C(=O)N[C@@H](C)C(=O)N[C@@H](CS)C(=O)N[C@H](C(N)=O)C(C)C (H-RPAFRKAAFRVMRACV-NH2),MIC,Pseudomonas aeruginosa,4 µM
same,MHC,[1],> 1300 µM
CCCCCCCCCCC(=O)NCC(=O)N[C@H](C(=O)NCC(=O)N[C@@H](CCCCN)C(=O)N[C@@H](Cc1ccccc1)C(=O)N[C@@H](CC(C)C)C(=O)N[C@@H](Cc1cnc[nH]1)C(=O)N[C@@H](CO)C(=O)N[C@@H](C)C(=O)N[C@@H](CCCCN)C(=O)N[C@@H](CCCCN)C(=O)N[C@@H](Cc1c[nH]c2ccccc12)C(=O)NCC(=O)N[C@@H](CCCCN)C(=O)N[C@@H](C)C(=O)N[C@@H](Cc1ccccc1)C(=O)N[C@H](C(=O)NCC(=O)N[C@@H](CCC(=O)O)C(=O)N[C@H](C(=O)N[C@@H](CCSC)C(=O)N[C@@H](CC(N)=O)C(=O)N[C@@H](CO)C(N)=O)[C@@H](C)CC)C(C)C)[C@@H](C)CC (Undecanoyl-GIGKFLHSAKKWGKAFVGEIMNS-NH2),MIC,Aspergillus fumigatus,6.25 µM
CCCCCCCCCCCC(=O)N[C@H](CC(C)C)C(=O)N[C@@H](CCCCN)C(=O)N[C@@H](CCCCN)C(=O)N[C@H](CC(C)C)C(=O)N[C@H](CC(C)C)C(=O)N[C@H](CC(C)C)C(=O)N[C@@H](CCCCN)C(=O)N[C@@H](CCCCN)C(=O)N[C@H](CC(C)C)C(=O)N[C@H](CC(C)C)C(=O)N[C@@H](CCCCN)C(=O)N[C@@H](CCCCN)C(=O)N[C@H](CC(C)C)C(N)=O,MIC,Aspergillus fumigatus,6.25 µM
same,MIC,Escherichia coli,25 µM
same,MHC,[2],Non-toxic
N=C(N)NCCC[C@H](NC(=O)[C@H](Cc1c[nH]c2ccccc12)NC(=O)[C@H](CCCNC(=N)N)NC(=O)[C@H](Cc1c[nH]c2ccccc12)NC(=O)[C@H](CCCNC(=N)N)NC(=O)[C@H](Cc1c[nH]c2ccccc12)NC(=O)[C@@H](N)CCCNC(=N)N)C(=O)N[C@@H](Cc1c[nH]c2ccccc12)C(N)=O (H-RWRWRWRW-NH2),MIC,Staphylococcus aureus,5.1 µM
same,MIC,Escherichia coli,9.6 µM
same,HC50,in vitro; erythrocyte,100 µM
CC[C@H](C)[C@H](NC(=O)CN)C(=O)NCC(=O)N[C@@H](CCCCN)C(=O)N[C@@H](Cc1ccccc1)C(=O)N[C@@H](CC(C)C)C(=O)N[C@@H](Cc1c[nH]cn1)C(=O)N[C@@H](CO)C(=O)N[C@@H](C)C(=O)N[C@@H](CCCCN)C(=O)N[C@@H](CCCCN)C(=O)N[C@@H](Cc1ccccc1)C(=O)NCC(=O)N[C@@H](CCCCN)C(=O)N[C@@H](C)C(=O)N[C@@H](Cc1ccccc1)C(=O)N[C@H](C(=O)NCC(=O)N[C@@H](CCC(=O)O)C(=O)N[C@H](C(=O)N[C@@H](CCSC)C(=O)N[C@@H](CC(N)=O)C(=O)N[C@@H](CO)C(=O)O)[C@@H](C)CC)C(C)C [MAGAININ 2] (H-GIGKFLHSAKKFGKAFVGEIMNS-OH),MIC,Bacillus subtilis,1 µM
same,MIC,Escherichia coli,1 µM
same,HC50,in vitro; red blood cells,70.6 µM
N=C(N)NCCC[C@H](NC(=O)[C@H](Cc1c[nH]c2ccccc12)NCCCC[C@H](N[C@@H](Cc1c[nH]c2ccccc12)C(=O)N[C@@H](CCCNC(=N)N)C(=O)O)C(=O)NCCCC[C@H](NC(=O)[C@H](CCCCN[C@@H](Cc1c[nH]c2ccccc12)C(=O)N[C@@H](CCCNC(=N)N)C(=O)O)N[C@@H](Cc1c[nH]c2ccccc12)C(=O)N[C@@H](CCCNC(=N)N)C(=O)O)C(=O)NCCC(N)=O)C(=O)O,MIC,Staphylococcus aureus,8.7 µM
same,MIC,Escherichia coli,2.4 µM
same,HC50,in vitro; red blood cells,760 µM
N=C(N)NCCC[C@H](NC(=O)[C@H](Cc1c[nH]c2ccccc12)NC(=O)[C@H](CCCNC(=N)N)NC(=O)[C@H](Cc1c[nH]c2ccccc12)NC(=O)[C@@H](N)CCCNC(=N)N)C(=O)N[C@@H](Cc1c[nH]c2ccccc12)C(N)=O (H-RWRWRW-NH2),MIC,Staphylococcus aureus,8 µM
same,MIC,Escherichia coli,16 µM
same,HC50,in vitro; erythrocyte,210 µM
CC(C)C[C@@H](N)C(=O)N[C@@H](CCCCN)C(=O)N[C@@H](CCCCN)C(=O)N[C@H](CC(C)C)C(=O)N[C@H](CC(C)C)C(=O)N[C@H](CC(C)C)C(=O)N[C@@H](CCCCN)C(=O)N[C@@H](CCCCN)C(=O)N[C@H](CC(C)C)C(=O)N[C@H](CC(C)C)C(=O)N[C@@H](CCCCN)C(=O)N[C@@H](CCCCN)C(=O)N[C@H](CC(C)C)C(N)=O,MIC,Aspergillus fumigatus,50 µM
same,MIC,Escherichia coli,> 50 µM
same,MHC,[2],Non-toxic
